Here are results for one compound from patent US12516070B2, “Fused ring derivatives and use thereof in pharmacy” (priority 2020, dated 2026).

The test system of experiment [1] is A/WSN/33 I38T Mutation (H1N1). Type of experiment: cell-based, influenza virus.
In experiment [2] the test system is A/PR/8/34 I38T Mutation (H1N1). In kind it is cell-based, influenza virus.

Usually EC50 stands for the midpoint of the concentration-response curve. A low value points to higher potency in that assay.

In the case of `CN1C(=O)c2c(O)c(=O)ccn2N2[C@H](c3ccccc3Br)c3cc(F)c(F)cc3OCC[C@@H]12` [Compound 18A], the concentration giving a half-maximal response (EC50) in experiment [1] came to 214 nM; in experiment [2] it was 117 nM.
